Source: patent publication US9463173B2, “Compositions and methods for treating obesity and obesity-related conditions” (THE JOHNS HOPKINS UNIVERSITY, priority 2014, dated 2016)

Assays:
[1] = tested on: HDAC activity of mouse liver nuclear extracts; assay: HDAC activity fluorometric assay, crude nuclear extracts; type: biochemical; design: dose or concentration left out as unconfirmed; conditions: mean ± S.D.
Protocol: (§1) FIG. 5A-5D. […] Deacetylation was measured using a fluorimetric assay. […] AMPKa was immunoprecipitated and immunoblotted for AMPKa and acetylated lysine (D). Immunoblots shown in D are representative of three independent experiments. Data in graphs are reported as the mean […] S.D. of samples from four independent experiments. […] DMSO, dimethylsulfoxide.
(§2) Analysis of HDAC activity was performed using an HDAC activity fluorometric assay kit (Caymen Chemicals, Ann Arbor, Mich.) and was carried out according to the manufacturer's instructions. Crude nuclear extracts were prepared from primary mouse hepatocytes as described in the manufacturer's instructions.

[2] = tested on: AMPK; assay: AMPK/ACC phosphorylation in primary mouse hepatocytes (immunoblot); type: cell-based; design: Phosphorylation (Ser79) of ACC / AMPK protein levels / ACC protein levels / Phosphorylation of ACC stimulated by VPA, in presence of AMPK inhibitor: dose or concentration left out as unconfirmed; conditions: for Levels of phosphorylated AMPK/ACC compared with VPA: 20 mM metabolite vs 800 mM VPA, 2 hours; for Levels of phosphorylated AMPK/ACC at higher concentration: 100 mM metabolite (data not shown)
Protocol: (§3) Proteins (20 mg) were resolved by sodium dodecyl sulfate polyacrylamide gel electrophoresis, electrotransferred to a nitrocellulose membrane, and probed using antibodies against AMPKa, phosphorylated (p-) AMPKa (Thr172), ACC, p-ACC (Ser79), and b-actin (obtained from Cell Signaling Technology, Danvers, Mass.).

[3] = target: human recombinant HDAC1 (Homo sapiens, UniProt Q13547); assay: HDAC activity fluorometric assay, recombinant HDAC1; type: biochemical; conditions: 800 mM VPA; 1 mM TSA; 20 mM metabolites; mean ± S.D.
human recombinant HDAC1, sequence (Q13547 whole entry): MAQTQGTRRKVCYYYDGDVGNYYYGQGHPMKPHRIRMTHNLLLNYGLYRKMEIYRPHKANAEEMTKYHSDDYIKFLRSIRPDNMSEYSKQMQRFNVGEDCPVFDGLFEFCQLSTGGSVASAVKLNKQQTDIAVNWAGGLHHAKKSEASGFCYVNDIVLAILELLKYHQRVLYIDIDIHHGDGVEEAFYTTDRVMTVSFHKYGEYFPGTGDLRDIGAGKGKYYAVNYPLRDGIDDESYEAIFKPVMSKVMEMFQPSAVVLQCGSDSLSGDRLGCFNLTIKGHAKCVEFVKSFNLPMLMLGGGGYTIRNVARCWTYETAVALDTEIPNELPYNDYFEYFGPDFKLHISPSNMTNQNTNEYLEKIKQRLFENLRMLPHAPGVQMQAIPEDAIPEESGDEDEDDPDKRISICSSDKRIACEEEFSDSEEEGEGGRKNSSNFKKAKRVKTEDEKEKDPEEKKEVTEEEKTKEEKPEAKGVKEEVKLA
Protocol: as §1, §2

[4] = 10 mg/kg/day in adults; cited from earlier work
[5] = tested on: AMPK; assay: AMPK/ACC phosphorylation in primary human hepatocytes (immunoblot); type: cell-based; design: dose or concentration left out as unconfirmed; conditions: 1 to 24 hours; following 1 hour; each of four donors
Protocol: Primary human hepatocytes were obtained from XenoTech LLC (Lenexa, Kans.). Four preparations were used: […]. The hepatocytes had reported viabilities of 95.4, 74.7, 77.9, and 74.9%, respectively. Upon receipt, the shipping medium was changed to Williams' E medium containing 10% FBS, penicillin, streptomycin, and L-glutamine. Following 24 hours of incubation at 37° C. and 5% CO2, the media was changed to 5% FBS, penicillin, streptomycin, and L-glutamine 4 hours prior to treatments.
as §3, with “Cells were harvested as previously described (Bumpus, 2011). Proteins” for “Proteins”

[6] = tested on: AMPKa; assay: AMPKa acetylation status in hepatocytes (immunoprecipitation, acetylated lysine immunoblot); type: cell-based, mouse
Protocol: as §1

[7] = tested on: ob/ob mice; assay: In vivo mouse study, 14 days via drinking water; conditions: for Accumulation of fats in the liver (histology) compared with untreated mice: hematoxylin and eosin staining; for Body mass day 1: day 1 prior to treatment; for Body mass day 7 / Body mass day 14: 0.26% (w/v) VPA or 0.5% (w/v) metformin in drinking water
Protocol: FIG. 6A-6E. […] A section of each liver was analyzed using hemotoxylin and eosin staining Histology images are representative of four mice per treatment group (A). The mass of each liver was measured and calculated as a ratio to body mass (B). Serum glucose (C) and serum triglyceride (D) concentrations were measured using colorimetric assays. ALT was measured using a colorimetric assay to assess for hepatotoxicity (E). Data in graphs are reported as the mean […] S.D. of four mice per cohort.
All treatments of mice as a part of this study were in accordance with protocols that were approved by the Institutional Animal Care and Use Committee of The Johns Hopkins University School of Medicine. […] Body masses were recorded on day 1 prior to treatment, day 7, and day 14. After 14 days of drug treatments, all mice were euthanized by isoflurane inhalation followed by cervical dislocation, and whole blood was collected immediately. The livers were weighed immediately, rinsed in cold phosphate-buffered saline, and fixed in 10% formalin for 48 hours for hematoxylin and eosin staining.
Serum glucose was analyzed using a Colorimetric Glucose Assay obtained from BioVision, Inc. (Milpitas, Calif.) and was performed according to manufacturer's instructions. Serum triglycerides were analyzed utilizing a Serum Triglyceride Determination Kit obtained from Sigma-Aldrich and was performed according to manufacturer's instructions.

With C=CCC(CCC)C(=O)O (racemic) [4-ene-VPA, (+/−)-2-Propyl-4-pentenoic Acid] the “deacetylation as compared with samples treated with vehicle only” value [1] was 90.1±3.9%, the “Levels of phosphorylated AMPK/ACC compared with VPA” value [2] was “greater than treatment with VPA itself” and the “Levels of phosphorylated AMPK/ACC at higher concentration” value [2] was “commensurate with those observed using 20 mM of metabolites”. It also gave a deacetylation [3] of 81.5±15.5%.

In the case of CC/C=C(\CCC)C(=O)O [2-ene-VPA, (E,Z) 2-Propyl-2-pentenoic Acid], the “deacetylation as compared with samples treated with vehicle only” value [1] is reported as 93.6±3.6%, the “Levels of phosphorylated AMPK/ACC compared with VPA” value [2] is reported as “greater than treatment with VPA itself” and the “Levels of phosphorylated AMPK/ACC at higher concentration” value [2] is reported as “commensurate with those observed using 20 mM of metabolites”. For the same compound, the deacetylation [3] was 90±9.1%.

For CCCC(C(=O)O)C(O)CC (stereo not drawn) [3-OH-VPA, 3-Hydroxy-2-propylpentanoic Acid], the “deacetylation as compared with samples treated with vehicle only” value [1] was 98±3.9%, the “Levels of phosphorylated AMPK/ACC compared with VPA” value [2] was “greater than treatment with VPA itself” and the “Levels of phosphorylated AMPK/ACC at higher concentration” value [2] was “commensurate with those observed using 20 mM of metabolites”. For the same compound, the deacetylation [3] was 86±16.8%.

For CCCC(C(=O)[O-])C(=O)CC.[Na+] (stereo not drawn) [3-keto-VPA, 3-oxo-2-propyl-pentanoic Acid Sodium Salt], the “deacetylation as compared with samples treated with vehicle only” value [1] was 94±7.3% and the deacetylation [3] was 90.9±15.2%.

With Nn1nnc2ccccc21 [ABT, 1-aminobenzotriazole] the “Levels of phosphorylated AMPK, ABT and VPA compared with ABT alone” value ([2]; 1 mM ABT 1 hour prior to VPA for 2 hours) was “not elevated”.

With c1cc(-c2cnn3cc(-c4ccc(OCCN5CCCCC5)cc4)cnc23)ccn1 [Compound C, 6-[4-(2-piperidin-1-ylethoxy)phenyl]-3-pyridin-4-ylpyrazolo[1,5-a]pyrimidine] the “Phosphorylation of ACC stimulated by VPA, in presence of AMPK inhibitor” value ([2]; Compound C 30 minutes prior to VPA for 2 hours) was “abrogated”.

For CC(/C=C/C(=O)NO)=C\[C@@H](C)C(=O)c1ccc(N(C)C)cc1 [TSA, trichostatin A], the “deacetylation as compared with samples treated with vehicle only” value [1] was 34.6±4.3%.

With CCCC(CCC)C(=O)O [VPA, valproic acid] the “deacetylation as compared with samples treated with vehicle only” value [1] was 76.4±1.2%, the “Concentration at which maximal phosphorylation of AMPK and ACC was observed” value ([2]; 2-hour treatment, concentrations from 200 mM to 2 mM) was 800 mM and the ACC protein levels ([2]; VPA) was “not significantly different”. The AMPK protein levels ([2]; VPA) was “did not change significantly”, the “Phosphorylation (Ser79) of ACC” value ([2]; VPA, time course 1-24 hours) was “observed” and the deacetylation [3] was 73.2±5%. The “Serum concentrations of VPA” value [4] was 400 to 1000 µM, the “Phosphorylation of AMPK and ACC” value [5] was “observed” and the “Acetylation of AMPKa compared with vehicle treatment samples” value [6] was “commensurate”. The “Accumulation of fats in the liver (histology) compared with untreated mice” value ([7]; 14 days) was “marked reduction”, the “Body mass day 1” value [7] was 50.2 ± 3 g and the “Body mass day 7” value [7] was 51.8 ± 3 g. The “Body mass day 14” value [7] was 53.8 ± 2.7 g and the “Abnormalities in the histology of treated livers” value ([7]; mouse, in vivo) was “did not detect any abnormalities”.

With CN(C)C(=N)N=C(N)N [metformin, Metformin] the “Ratio of liver mass to body mass compared with untreated mice” value ([7]; 14 days) was “significantly decreased”, the “Serum ALT activity” value ([7]; 14 days) was 13.3±4 mU/ml and the “Serum glucose concentrations compared with untreated mice” value ([7]; 14 days) was “significantly decreased”. For the same compound, the “Serum triglyceride concentrations compared with untreated mice” value ([7]; 14 days) was “decreased”, the “Accumulation of fats in the liver (histology) compared with untreated mice” value ([7]; 14 days) was “marked reduction” and the “Body mass day 1” value [7] was 45.4 ± 6 g. The “Body mass day 7” value [7] was 47.4 ± 5.6 g and the “Body mass day 14” value [7] was 50 ± 6.1 g.
